Results taken from patent publication US20130164747A1, “Predicting Treatment Response in Cancer Subjects” (University of South Florida, priority 2005, published 2013).
pIC50: −log10 of the molar value. Like-named read-outs stand apart in the source and are kept apart here.

Assays:
[1] = system: ERCC1 expression; assay: Summary of observations: response by ERCC1 expression level
[2] = system: RRM1 expression; assay: Summary of observations: response by RRM1 expression level
[3] = system: H23siCt cells; assay: MTS assay, siRNA control cell line; assay type: cell-based
Excerpt: (§1) Reduced expression of RRM1 correlates with increased sensitivity to gemcitabine. Stable, genetically modified cell lines with increased and decreased RRM1 expression and corresponding controls were generated (Gautam et al., Oncogene 22:2135-42, 2003). H23, originating from a lung adenocarcinoma, was used as the parent cell line (Carney et al., Cancer Res 45:2913-23, 1985). H23siR1 was generated by stable transfection of NCI-H23 with a pSUPER-siRRM1 construct. These cells express an siRNA that targets RRM1, thereby causing decreased expression of RRM1. To generate this construct, the pSUPER-GFP/neo vector (OligoEngine, Seattle, Wash.) was digested with BglII and HindIII and the annealed oligonucleotides (5′-GATCCCCgacgctagagcggtettat[…]ataagaccgctctagcgte[…]-3′(SEQ ID NO:1) and 5′-[…]gacgctagagcggtcttatTC TCTTGAAataagaccgctctagcgtcGGG-3′ (SEQ ID NO:2)) were ligated into the vector. The 19 nucleotide RRM1 target sequences are denoted by lower-case letters. The control H23siCt cell line was generated which expressed an siRNA targeting the sequence […] (SEQ ID NO:3). This sequence has no similarity to any known gene. H23-R1 is a stable RRM1 overexpressing cell line, and H23-Ct is its corresponding control. Both were generated by transfection with full-length RRM1 cDNA cloned into the expression plasmid pCMV-Tag2 (Stratagene, La Jolla, Calif.) as previously described (Gautam et al., Oncogene 22:2135-42, 2003). The level of RRM1 expression in these cell lines was assessed by real-time quantitative RT-PCR and Western blot analysis.
(§2) A modified MTT assay (MTS assay, Promega, Madison, Wis.) was used to assess the impact of RRM1 expression on therapeutic efficacy of gemcitabine and platinum-containing agents in vitro. This MTS assay utilized 3-(4,5-dimethylthiazol-2-yl)-5-(3-carboxymethoxyphenyl)-2-(4-sulfophenyl)-2H-tetrazolium as the reagent. The assay was performed by seeding 4,000 cells/well in 96 well flat-bottom plates. H23-Ct, H23-R1, H23siR1, H23siCt cells were continuously exposed to drug for 72 or 96 hr. After 3 hr of incubation at 37° C., the absorbance was measured at 490 nm in a microplate reader (Benchmark Plus, Bio-Rad, Hercules, Calif.). All experiments were repeated three times.
(§3) The MTS assay was performed by seeding 4,000 cells/well in 96 well flat-bottom plates. H23-Ct, H23-R1, H23 siR1, H23siCt cells were continuously exposed to drug for 72 or 96 h. The assay was performed with 3-(4,5-dimethylthiazol-2-yl)-5-(3-carboxymethoxyphenyl)-2-(4-sulfophenyl)-2H-tetrazolium reagent. After 3 h of incubation at 37° C., the absorbance was measured at 490 nm. All experiments were repeated three times.

[4] = system: H23 (NCI-H23) cells; assay: MTS assay (modified MTT), parent cell line; assay type: cell-based
Method: as §2, §3

[5] = system: H23siR1 cells; assay: MTS assay, cell line with siRNA-reduced RRM1 expression; assay type: cell-based
Excerpt: as §1, §2, §3

[6] = system: H23-Ct cells; assay: MTS assay, control cell line of H23-R1; assay type: cell-based
Excerpt: as §1, §2, §3

[7] = system: H23-R1 cells; assay: MTS assay, RRM1-overexpressing cell line; assay type: cell-based
Excerpt: as §1, §2, §3

[8] = system: control cell lines H23-Ct and H23siCt; assay: Drug-induced apoptosis, annexin V labeling by flow cytometry; assay type: cell-based; conditions: 6 h
Method: (§4) To determine drug-induced in vitro apoptosis, 3×10^5 cells/well were seeded in six-well plates and allowed to attach overnight. Chemotherapeutic agents were added to the culture at the indicated concentrations. After 2, 4, and 6 hours of treatment annexin V labeling of the cells was performed as recommended by the manufacturer (BD Pharmingen, San Diego, Calif.). The percentage of labeled cells was determined by flow cytometry (FACScalibur, Becton Dickinson, Franklin Lakes, N.J.). […] The proportion of cells labeled after 6 h of treatment with 250 nM gemcitabine was 6.6-6.9% in control cell lines, 2.6% in H23-R1, and 15.2% in H23siR1. Cisplatin exposure for 6 h at 200 nM yielded 14.5-15.1% apoptotic cells in H23-Ct and H23siCt, 5.5% apoptotic cells in H23-R1, and 19.0% apoptotic cells in H23siR1.

[9] = system: H23siR1 cells; assay: as above; assay type: cell-based
Method: as §4
(§5) Induction of apoptosis as a result of drug exposure was determined with 3×10^5 cells/well in six-well plates after 2, 4 and 6 hours of treatment. Cells were then labeled with annexin V, and labeling was determined by flow cytometry (FACScalibur, Becton Dickinson). After 4 h and 6 h of gemcitabine treatment 2.55% and 5.05% of the H23siCt cells were apoptotic while 5.09% and 15.7% of H23siR1 cells were apoptotic (FIG. 4). Likewise, the proportion of apoptotic cells after exposure to […] was higher in H23siR1 than in control cells. […] The increased apoptosis caused by both drugs in cell lines with reduced RRM1 expression was significant (p<0.05) as compared to control cells.

[10] = system: H23-R1 cells; assay: as above; assay type: cell-based
Method: as §4, §5

[11] = system: H23siCt cells; assay: as above; assay type: cell-based
Method: as §5

[12] = RRM1 no change, continuous exposure 72 or 96 hr, read-out: IC50 +/− SD
[13] = H23 (NCI-H23) parent cell line, continuous exposure 72 or 96 hr, read-out: IC50 +/− SD
[14] = H23siR1, RRM1 5-fold down, continuous exposure 72 or 96 hr, read-out: IC50 +/− SD
[15] = H23-R1, RRM1 3-fold up, continuous exposure 72 or 96 hr, read-out: IC50 +/− SD
[16] = Homo sapiens, H23 (NCI-H23) parent cell line, continuous exposure 72 or 96 hr, read-out: IC50 +/− SD
[17] = continuous exposure 72 or 96 h, read-out: IC50

| Compound | Response at ERCC1 high expression [1] | Response at ERCC1 low expression [1] | Response at RRM1 high expression [2] | Response at RRM1 low expression [2] | pIC50 [3, 12] | pIC50 [4, 13] | pIC50 [5, 14] | pIC50 [6, 12] | pIC50 [7, 15] | Response at RRM1 medium expression [2] | pIC50 [4, 16] | other results |
| --- | --- | --- | --- | --- | --- | --- | --- | --- | --- | --- | --- | --- |
| N.N.O=C([O-])C1(C(=O)[O-])CCC1.[Pt+2] [Carboplatin, carboplatin] | resistant | sensitive | Minimal | Minimal | 4.89 | 4.92 | 5.00 | 4.82 | – | – | – | – |
| N.N.[Cl][Pt][Cl] [Cisplatin, cisplatin] | resistant | sensitive | Minimal | Minimal | 6.00 | 5.92 | 6.02 | 5.90 | 5.82 | – | – | Apoptotic cells ([8]; H23-Ct and H23siCt, cisplatin 200 nM): 14.5-15.1%; Apoptotic cells ([9]; H23siR1, cisplatin 200 nM, 6 h): 19.0%; Apoptotic cells ([10]; H23-R1, cisplatin 200 nM, 6 h): 5.5% |
| CC(=O)O[C@@]12CO[C@@H]1C[C@H](O)[C@@]1(C)C(=O)[C@H](O)C3=C(C)[C@@H](OC(=O)[C@H](O)[C@@H](NC(=O)OC(C)(C)C)c4ccccc4)C[C@@](O)([C@@H](OC(=O)c4ccccc4)[C@H]21)C3(C)C [Docetaxel, docetaxel] | – | – | Sensitive | Sensitive | 5.60 | – | 8.22 | 6.15 | 8.05 | Resistant | 6.00 | Proportion of apoptotic cells compared with control cells ([9]; H23siR1 versus control cells): higher; Apoptosis compared with control cells ([10]; H23-R1 versus control cells): more apoptosis |
| Nc1ccn([C@@H]2O[C@H](CO)[C@@H](O)C2(F)F)c(=O)n1 [Gemcitabine, gemcitabine] | – | – | resistant | Sensitive | 5.99 | – | 7.00 | 6.12 | 5.22 | – | 6.30 | IC50 of H23-R1 higher than IC50 of H23-Ct (more resistant than control cell line) ([7]; H23-R1 versus H23-Ct): 8 fold; Proportion of cells labeled with annexin V ([8]; control cell lines, 250 nM gemcitabine): 6.6-6.9%; Apoptotic cells ([11]; 4 h of treatment (Example 4, FIG. 4)): 2.55%; Apoptotic cells ([11]; 6 h of treatment (Example 4, FIG. 4)): 5.05%; Proportion of cells labeled with annexin V ([9]; H23siR1, 250 nM gemcitabine, 6 h): 15.2%; Apoptotic cells ([9]; H23siR1, 4 h of treatment (Example 4, FIG. 4)): 5.09%; Apoptotic cells ([9]; H23siR1, 6 h of treatment (Example 4, FIG. 4)): 15.7%; Proportion of cells labeled with annexin V ([10]; H23-R1, 250 nM gemcitabine, 6 h): 2.6%; IC50 of H23siR1 lower than IC50 of H23siCt (more sensitive than control cell line) ([5]; H23siR1 versus H23siCt): 10 fold |
| Nc1nc2[nH]cc(CCc3ccc(C(=O)N[C@@H](CCC(=O)O)C(=O)O)cc3)c2c(=O)[nH]1 [Pemetrexed, pemetrexed] | – | – | resistant | Sensitive | – | – | – | – | – | – | – | – |
| CCC1=C[C@@H]2CN(C1)Cc1c([nH]c3ccccc13)[C@@](C(=O)OC)(c1cc3c(cc1OC)N(C)[C@H]1[C@@](O)(C(=O)OC)[C@H](OC(C)=O)[C@]4(CC)C=CCN5CC[C@]31[C@@H]54)C2 [Vinorelbine, vinorelbine] | – | – | Sensitive | Sensitive | – | – | – | – | – | Resistant | – | pIC50 ([7]; H23-R1, continuous exposure 72 or 96 h, read-out: IC50): 6.40; pIC50 [3, 17]: 4.70; pIC50 ([4]; Homo sapiens, NCI-H23, continuous exposure 72 or 96 h, read-out: IC50): 5.10; pIC50 ([5]; H23siR1, continuous exposure 72 or 96 h, read-out: IC50): 8.00; pIC50 [6, 17]: 4.70 |
